This note sets out measurements from patent publication US5808060A, “Fused isoindolones” (Cephalon, Inc., priority 1996, dated 1998).

One assay concerns the target protein kinase C. Nature of the assay: PKC Activity Inhibition Assay. It counts as biochemical. How it is done: Fused isoindolones inhibited the activity of protein kinase C (Table VI). The protein kinase C assay has been disclosed (Murakata et al., U.S. Pat. No. 4,923,986; Kikkawa et al., J. Biol. Chem. 257: 13341-13348 (1982)). The assay was performed with several concentrations of fused isoindolones. The concentration at which protein kinase C was 50% inhibited (IC50) was determined.

In the next assay the target is trkA tyrosine kinase (Homo sapiens, UniProt P04629). Nature of the assay: trkA Tyrosine Kinase Activity Inhibition Assay (ELISA). In kind it is biochemical. The settings on record: PLCγ/pGEX substrate, 16 μM ATP, 37° C., 15 min, read-out: trk A INHIBITION IC50. How it is done: Fused isoindolones inhibited trkA tyrosine kinase activity as determined by ELISA. trkA is a high affinity receptor for neurotrophins. Fused isoindolones were added to 96-well microtiter plates that were previously coated with a phosphorylation substrate (phospholipase C-γ (PLCγ)/pGEX fusion protein) (see Rotin, et al., 11 EMBO J. 559, 1992). These compounds were then tested for the ability to inhibit substrate phosphorylation by the trkA tyrosine kinase.
trkA tyrosine kinase, sequence (P04629 33-796): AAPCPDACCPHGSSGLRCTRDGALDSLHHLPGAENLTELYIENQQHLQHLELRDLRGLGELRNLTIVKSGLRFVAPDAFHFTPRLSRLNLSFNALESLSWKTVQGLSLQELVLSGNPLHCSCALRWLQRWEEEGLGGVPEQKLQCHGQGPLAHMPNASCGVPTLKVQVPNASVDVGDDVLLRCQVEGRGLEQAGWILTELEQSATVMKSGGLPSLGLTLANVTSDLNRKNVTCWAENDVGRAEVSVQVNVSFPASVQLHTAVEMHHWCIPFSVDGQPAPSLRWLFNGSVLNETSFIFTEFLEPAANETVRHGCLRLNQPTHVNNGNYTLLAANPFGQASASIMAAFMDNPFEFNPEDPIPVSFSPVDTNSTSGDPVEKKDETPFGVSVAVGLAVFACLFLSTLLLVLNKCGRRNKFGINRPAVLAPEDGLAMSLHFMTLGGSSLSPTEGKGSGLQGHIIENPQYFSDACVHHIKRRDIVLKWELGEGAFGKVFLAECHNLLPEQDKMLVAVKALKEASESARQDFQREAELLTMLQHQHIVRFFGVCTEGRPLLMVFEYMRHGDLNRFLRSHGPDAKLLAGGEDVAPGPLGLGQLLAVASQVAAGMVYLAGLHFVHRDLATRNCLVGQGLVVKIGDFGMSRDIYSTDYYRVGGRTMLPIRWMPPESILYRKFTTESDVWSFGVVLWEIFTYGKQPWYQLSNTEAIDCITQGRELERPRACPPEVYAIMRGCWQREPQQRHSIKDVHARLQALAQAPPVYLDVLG
Methods: 96-well ELISA plates (Nunc) were coated with 100 μl/well of the phosphorylation substrate (40 μg/ml) PLCγ/pGEX fusion protein) in 20 mM Tris, pH 7.6, 137 mM NaCl, and 0.02% NaN3 overnight at 4° C. […] Plates were washed three times with TBST, followed by two washes with TBS (TBST sans Tween-20). Fused pyrrolocarbozoles were then added at various concentrations to a reaction mixture (50 mM HEPES, pH 7.4, 5 mM MnCl2, 5 mM MgCl2, 140 mM NaCl, 16 μM ATP, and 15 ng trkA in a total volume of 100 μL.). As a negative control, 100 mM EDTA was included in the reaction solution. The plates were then incubated at 37° C. for 15 min. The detection antibody, monoclonal anti-phosphotyrosine antibody (UBI), was added at a dilution of 1:2000 in TBST, and incubated for 1 hour at 37° C. […] The colored product was read at 490 nm in a microplate reader (Biotek).

For assay [1], the system named is dissociated rat embryonic spinal cord culture (ChAT activity). Nature of the assay: Spinal Cord ChAT Activity Assay. As to conditions: after 2-3 hour plating period; single application; ChAT measured 48 hours later; control cultures not treated. It counts as cell-based. The source says:
As noted, ChAT is a specific biochemical marker for functional cholinergic neurons. Cholinergic neurons represent the major cholinergic input into the hippocampal formation, olfactory nucleus, interpeduncular nucleus, cortex, amygdala, and parts of the thalamus. In the spinal cord, the motor neurons are cholinergic neurons which contain ChAT (Phelps et al., J. Comp. Neurol. 273: 459-472 (1988)). ChAT activity has been used to study the effects of neurotrophins (e.g., NGF or NT-3) on the survival and/or function of cholinergic neurons. The ChAT assay also serves as an indication of the regulation of ChAT levels within cholinergic neurons.
Fused isoindolone derivatives increased ChAT activity in the dissociated rat embryonic spinal cord culture assay (FIG. 1). […]
Methods: Fetal rat spinal cord cells were dissociated, and experiments were performed as described (Smith et al., J. Cell Biology 101: 1608-1621 (1985); Glicksman et al., J. Neurochem. 61: 210-221 (1993)). […] ChAT activity was measured after 2 days in vitro using a modification of the Fonnum procedure (Fonnum, J. Neurochem. 24: 407-409 (1975)) according to McManaman et al. and Glicksman et al. (McManaman et al., Developmental Biology 125: 311-320 (1988); Glicksman et al., J. Neurochem. 61: 210-221 (1993)).

The subject of assay [2] is basal forebrain cultures (ChAT activity). Nature of the assay: Basal Forebrain ChAT Activity Assay. It counts as cell-based, rat. As to conditions: preliminary assays; ChAT assessed 5 days after plating. On the procedure: Fused isoindolone derivatives were tested for the ability to increase ChAT activity of basal forebrain cultures.
Methods: The basal forebrain was dissected from rat embryos (day 17 or 18 embryos) and the cells were dissociated with a neutral protease (Dispase™, Collaborative Research). Neurons were plated at a density of 5×10^4 cells/well (1.5×10^5 cells/cm^2) in poly-l-ornithine and laminin coated plates. Cells were cultured in serum-free N2 medium containing 0.05% BSA at 37° C. in a humidified atmosphere, 5% CO2 /95% air. ChAT activity was assessed 5 days after plating by using the ChAT assay as described in Example III(A)(1).

pIC50: −log10 of the molar value.

For orientation: pIC50 means the negative decadic logarithm of the IC50, by convention in mol/L.

The compound `O=C1NC(=O)c2c1c1c(c3c2-c2ccccc2C3)Cc2ccccc2-1` [Compound I-1, 1H-Indenyl[2,3-c]-1H-indenyl[2,3-e]isoindol-1,3-dione] gave a pIC50 against protein kinase C of 6.19.

Take `O=C1NCc2c1c1c(c3c2-c2ccccc2C3)Cc2ccccc2-1` [Compound I-2, 1H-Indenyl[2,3-c]-1H-indenyl[2,3-e]-3H-isoindol-1-one]: the pIC50 against protein kinase C was 5.70; on trkA tyrosine kinase, 6.72. Further, in assay [1], the “increased ChAT activity over control cultures (spinal cord)” value turned out to be 150 % over control.

`O=C1NC(=O)c2c1c1c3ccccc3sc1c1sc3ccccc3c21` [Compound I-3, Benzothieno[2,3-c]benzothieno[2,3-e]isoindol-1,3-dione]: the “effect on basal forebrain ChAT activity” value in assay [2] was “did not increase ChAT activity”.

`O=C1NCc2c1c1c3ccccc3sc1c1sc3ccccc3c21` [Compound I-4, Benzothieno[2,3-c]benzothieno[2,3-e]isoindol-1-one]: in assay [2], the “effect on basal forebrain ChAT activity” value is “did not increase ChAT activity”.
